Activity calls are given as the source filed them. No cut-off for these calls is given here.
Assays:
Rattus norvegicus [1] = species on record: Rattus norvegicus; test: In virto uterotonic activity in Sprague-Dawley rat uterus assessed as contraction at 20 ug/ml; type: functional, tissue-based
Rattus norvegicus [2] = test: In vivo uterotonic activity in iv dosed estrous Sprague-Dawley rat uterus assessed as contraction by sponge tipped catheter method; type: functional
[3] = In virto uterotonic activity in Sprague-Dawley rat uterus assessed as contraction; type: functional
Rattus norvegicus [4] = species on record: Rattus norvegicus; test: In virto uterotonic activity in Sprague-Dawley rat uterus assessed as contraction in presence of methysergide; type: functional, tissue-based
Rattus norvegicus [5] = test: In vivo uterotonic activity in estrous Sprague-Dawley rat uterus assessed as maximum peak contraction at 2400 ug/kg, iv within 20 mins by sponge tipped catheter method; type: functional
Rattus norvegicus [6] = species on record: Rattus norvegicus; test: In virto uterotonic activity in Sprague-Dawley rat uterus assessed as contraction in presence of atropine; type: functional, tissue-based
[7] = In virto uterotonic activity in Sprague-Dawley rat uterus expressed as g-force unit; type: functional

CN1c2ccccc2C(=O)N2CCc3c([nH]c4ccccc34)[C@@H]21
Activity (Rattus norvegicus [1]): inactive

C[n+]1c2n(c(=O)c3ccccc31)CCc1c-2[nH]c2ccccc12.[Cl-] [DEHYDROEVODIAMINE CHLORIDE]
Activity (Rattus norvegicus [2]): Dose-dependent effect | Activity (Rattus norvegicus [2]; record 2): 80 µg/kg | Activity [3]: 0.6 µg/mL | Activity (Rattus norvegicus [4]): Active | Activity (Rattus norvegicus [5]): 25.3 mmHg | Activity (Rattus norvegicus [6]): Active | Activity [7]: 2.15 g

Cl.O=c1c2ccccc2nc2n1CCc1c-2[nH]c2ccccc12 [RUTAECARPINE HYDROCHLORIDE]
Activity [3]: <1 µg/mL | Activity [7]: 0.72 g

Source: ChEMBL document CHEMBL1151350, “Uterotonic effect of Evodia rutaecarpa alkaloids” (1980)
